These results are taken from PMC4748415, “Impact of different cell penetrating peptides on the efficacy of antisense therapeutics for targeting intracellular pathogens” (Scientific Reports, 2016).

≈ marks a conversion by molar mass, not a printed value. Where “and” joins values, the source holds several entries; their conditions need not be identical. Equal entries are not always repeated. Entries after “also recorded” stand apart in the source; their conditions may differ. Where two headings read alike, the source gives them in different places. Peptide text beside a SMILES is read from it.

Experiment [1] has as its system L. monocytogenes J0161 in infected C. elegans. Briefly: C. elegans infection model. Conditions: 18 hours treatment; for Log CFUs/worm: 10 worms in triplicates; for Log CFUs reduction: versus water.
Method: To test the efficacy of PNA in vivo we used Listeria-infected C. elegans. The temperature-sensitive sterile mutant strain C. elegans AU37 [sek-1(km4); glp-4(bn2) I] was used for this study. This strain is sterile at room temperature and can lay eggs only at 15 °C. Furthermore, mutation in the sek-1 gene of the p38 mitogen-activated protein kinase pathway (p38 MAPK pathway), makes this particular C. elegans strain more susceptible to Listeria infection[49][56]. Initially, the pathogenicity of three strains of Listeria (F4244, J0161 and ATCC19111) was tested in C. elegans as described before[24] to determine the most virulent strain to use for this study. […] Briefly, adult worms were grown for 5 days, at 15 °C (temperature that permits worms to lay eggs) on NGM agar plates seeded with a lawn of E. coli OP50. The eggs were harvested by bleaching[57] and maintained for 24 hours at room temperature with gentle agitation for hatching. Hatched larvae were transferred to a new NGM plate seeded with E. coli OP50 and were kept at room temperature for five days until worms reached the adult stage of growth. Adult worms were collected and washed three times with M9 media in a 1:10 ratio to remove E. coli before transfer to LB agar plates seeded with a lawn of L. monocytogenes J0161 for infection. After eight hours of infection, worms were collected and washed with M9 buffer five times before incubation with PNAs. Worms were transferred to low-binding microcentrifuge tubes (10 worms per tube). […] After treatment for 18 hours, worms were washed five times with M9 buffer. […] Samples were serially diluted and plated onto TSA plates containing 5 μg/ml nalidixic acid to select for Listeria.
The test system of experiment [2] is clinical isolates of L. monocytogenes. It is filed as cell-based, Listeria monocytogenes. As for the experimental part:
(§1) The MICs of conjugated PNAs, free PNA, CPPs and untreated control against L. monocytogenes were determined using the broth microdilution method according to the Clinical and Laboratory Standards Institute (CLSI) guidelines with the following modifications. Briefly, low binding clear microcentrifuge tubes (USA scientific, Inc. Ocala, FL) were used in triplicates for each reaction instead of traditional 96-well plates. […] After a 16 hour incubation period (of test agent with bacteria), the number of viable bacteria was enumerated by serial dilution and counting on TSA plates. The MICs were repeated at least twice.

The subject of experiment [3] is L. monocytogenes F4244. Briefly: Concentration-dependent bacterial log reduction in pure culture. It is filed as cell-based, Listeria monocytogenes. Conditions: for Log CFU/ml: pure culture F4244, 16 hour incubation; for Log CFU reduction: relative to control, pure culture F4244. As for the experimental part: as §1
The test system of experiment [4] is L. monocytogenes F4244. Briefly: Time kill assay. Type of experiment: cell-based, Listeria monocytogenes. Conditions: 12 hours; for bactericidal or bacteriostatic activity: L. monocytogenes, time kill at 32 μM. On the procedure:
L. monocytogenes F4244 in logarithmic growth phase was diluted to ~10^5 CFU/ml and incubated with 32 μM of the five PNAs (in triplicates) at 37 °C for 12 hours. Samples were collected every two hours, serially diluted, and plated onto TSA plates. Plates were then incubated wat 37 °C for 24 hours before viable CFUs were determined.
Samples were collected every 20 minutes and processed as above.

The subject of experiment [5] is L. monocytogenes F4244 inside infected J774A.1 cells. It is filed as cell-based. Particulars: 4 hours; for Log CFU/ml: intracellular F4244 in J774A.1; for Log CFU reduction: intracellular F4244 in J774A.1, versus control.
Where [6] appears, read: concentration required to inhibit 50% of L. monocytogenes isolates (six isolates).
Where [7] appears, read: strain ATCC 13932, broth microdilution in low binding tubes, triplicates, 16 hour incubation.
The mark [8] stands for this setting: strain ATCC 19111, broth microdilution in low binding tubes, triplicates, 16 hour incubation.
Where [9] appears, read: strain ATCC 19112, broth microdilution in low binding tubes, triplicates, 16 hour incubation.
Where [10] appears, read: strain ATCC 19114, broth microdilution in low binding tubes, triplicates, 16 hour incubation.
The mark [11] stands for this setting: strain F4244, broth microdilution in low binding tubes, triplicates, 16 hour incubation, no turbidity.
Where [12] appears, read: strain J0161, broth microdilution in low binding tubes, triplicates, 16 hour incubation.

With `CNC(C)C1CCC(N)C(OC2C(N)CC(N)C(OC3OCC(C)(O)C(NC)C3O)C2O)O1` (stereo not drawn) [Gentamicin, gentamicin, reference compound], in experiment [1] (16 µM), the “Log CFUs/worm” value is recorded as 3.52±0.55 Log CFUs/worm and the “Log CFUs reduction” value amounted to 0.63 Log CFUs. In experiment [1] (32 µM), the “Log CFUs/worm” value was determined as 2.18±0.6 Log CFUs/worm and the “Log CFUs reduction” value amounted to 2.2 Log CFUs.

The term MIC50 denotes an inhibitory concentration at the 50% level, which refers to growth in some studies and to a panel of isolates in others. As for `NCCCC[C@H](NC(=O)[C@H](Cc1ccccc1)NC(=O)[C@H](Cc1ccccc1)NC(=O)[C@H](CCCCN)NC(=O)[C@H](Cc1ccccc1)NC(=O)[C@H](Cc1ccccc1)NC(=O)[C@H](CCCCN)NC(=O)[C@H](Cc1ccccc1)NC(=O)[C@H](Cc1ccccc1)NC(=O)[C@@H](N)CCCCN)C(N)=O` [KFF, reference compound] (H-KFFKFFKFFK-NH2), the MIC50 in experiment [2] (clinical isolates of, 16 h) worked out at 64 µM (≈ 90.4 µg/mL).

In general, MIC refers to the least concentration at which growth counts as inhibited. Low readings indicate inhibition by little substance, high ones a need for much substance. For the compound `N=C(N)NCCC[C@H](NC(=O)CN)C(=O)N[C@@H](CCCCN)C(=O)N[C@@H](CCCCN)C(=O)N[C@@H](CCCCN)C(=O)N[C@@H](CCCNC(=N)N)C(=O)N[C@@H](CCCNC(=N)N)C(=O)N[C@@H](CCC(N)=O)C(=O)N[C@@H](CCCNC(=N)N)C(=O)N[C@@H](CCCNC(=N)N)C(=O)N[C@@H](CCCNC(=N)N)C(=O)N[C@@H](Cc1ccc(O)cc1)C(=O)N[C@@H](CCCCN)C(=O)O` [TAT, reference compound] (H-GRKKKRRQRRRYK-OH), in experiment [2] (clinical isolates of, 16 h), the MIC is greater than 128 µM and the MIC50 was greater than 128 µM.

The compound KFFKFFKFFK-O-cgatcattcaaa-NH2 [PKFF] displayed an MIC50 in experiment [2] (setting [6]) of 32 µM. Moreover, the MIC in experiment [2] (setting [7]) worked out at 32 µM; in experiment [2] (setting [8]), 32 µM; in experiment [2] (setting [9]), 32 µM; in experiment [2] (setting [10]), 2 µM; in experiment [2] (setting [11]), 32 µM; in experiment [2] (setting [12]) it was 32 µM. In addition, the “Log CFU/ml” value in experiment [3] (1 µM PNA) worked out at 9.40±0.08 Log CFU/ml; in experiment [3] (2 µM PNA) it was 9.35±0.05 Log CFU/ml; in experiment [3] (4 µM PNA) it was 9.26±0.07 Log CFU/ml; in experiment [3] (8 µM PNA), 8.93±0.35 Log CFU/ml; in experiment [3] (16 µM PNA) it was 8.40±0.16 Log CFU/ml; in experiment [3] (32 µM PNA), 6.63±0.59 Log CFU/ml. Also, the results for the “Log CFU/ml” value in experiment [5] (2 μM), in experiment [5] (4 μM) and in experiment [5] (8 μM) were 6.77 ± 0.03 Log CFU/ml, 6.76 ± 0.08 Log CFU/ml and 6.12 ± 0.32 Log CFU/ml, respectively. In addition, the “Log CFU reduction” value is listed as -0.009 Log CFU in experiment [3] (1 µM PNA); 0.041 Log CFU in experiment [3] (2 µM PNA); 0.129 Log CFU in experiment [3] (4 µM PNA); 0.46 Log CFU in experiment [3] (8 µM PNA); 0.98 Log CFU in experiment [3] (16 µM PNA); 2.78 Log CFU in experiment [3] (32 µM PNA). Besides, the entries for the “Log CFU reduction” value in experiment [5] (2 μM), in experiment [5] (4 μM) and in experiment [5] (8 μM) were −0.031 Log CFU, −0.029 Log CFU and 0.6 Log CFU, respectively. Moreover, in experiment [4], the “bactericidal or bacteriostatic activity” value is listed as “bacteriostatic effect”. Moreover, the entries for the “Log CFUs/worm” value in experiment [1] (16 µM) and in experiment [1] (32 µM) were 3.43±0.2 Log CFUs/worm and 3.35±0.25 Log CFUs/worm, respectively. The “Log CFUs reduction” value is given as 0.71 Log CFUs in experiment [1] (16 µM) and 1.03 Log CFUs in experiment [1] (32 µM).

“RFRRFRRFRRFRXB [(RFR)4XB, cell penetrating peptide (RFR)4XB, reference compound]”: the MIC50 in experiment [2] (setting [6]) was greater than 128 µM. In addition, the MIC was greater than 128 µM in experiment [2] (setting [7]); 32 µM in experiment [2] (setting [8]); greater than 128 µM in experiment [2] (setting [9]); 128 µM in experiment [2] (setting [10]); greater than 128 µM in experiment [2] (setting [11]); “no growth inhibition” in experiment [2] (strain F4244, broth microdilution in low binding tubes, triplicates, 16 hour incubation, no turbidity, listed as RFR). This compound also displayed an MIC in experiment [2] (setting [12]) greater than 128 µM.

“RQIKIWFQNRRMKWKK-O-cgatcattcaaa-NH2 [PANT]” displayed an MIC50 in experiment [2] (setting [6]) of 32 µM. Further, the MIC is 32 µM in experiment [2] (setting [7]); 32 µM in experiment [2] (setting [8]); 32 µM in experiment [2] (setting [9]); 1 µM in experiment [2] (setting [10]); 16 µM in experiment [2] (setting [11]); 32 µM in experiment [2] (setting [12]). For the same compound, the “Log CFU/ml” value is reported as 9.30±0.06 Log CFU/ml in experiment [3] (1 µM PNA); 9.27±0.21 Log CFU/ml in experiment [3] (2 µM PNA); 9.14±0.05 Log CFU/ml in experiment [3] (4 µM PNA); 8.09±0.95 Log CFU/ml in experiment [3] (8 µM PNA); 6.73±0.48 Log CFU/ml in experiment [3] (16 µM PNA); “bacterial clearance; also recorded: Cleared” in experiment [3] (32 µM PNA). Besides, the “Log CFU/ml” value in experiment [5] (2 μM) was determined as 6.82 ± 0.02 Log CFU/ml; in experiment [5] (4 μM) it was 6.67 ± 0.05 Log CFU/ml; in experiment [5] (8 μM), 4.65 ± 0.34 Log CFU/ml. Further, the “Log CFU reduction” value in experiment [3] (1 µM PNA) is 0.095 Log CFU; in experiment [3] (2 µM PNA), 0.119 Log CFU; in experiment [3] (4 µM PNA), 0.25 Log CFU; in experiment [3] (8 µM PNA), 1.3 Log CFU and 1.30 Log CFU; in experiment [3] (16 µM PNA) it was 2.66 Log CFU; in experiment [3] (32 µM PNA), 9.39 Log CFU. For the same compound, the “Log CFU reduction” value in experiment [5] (2 μM) was −0.09 Log CFU; in experiment [5] (4 μM), 0.06 Log CFU; in experiment [5] (8 μM), 2.07 Log CFU. In addition, the “time to complete eradication of Listeria” value in experiment [4] (32 μM PNA, 37 °C, samples every 2 hours, ~10^5 CFU/ml) was found to be 10 h. The “bactericidal or bacteriostatic activity” value in experiment [4] is recorded as “bactericidal activity”. Further, the “Log CFUs/worm” value was found to be 3.88±0.15 Log CFUs/worm in experiment [1] (16 µM) and 2.49±0.48 Log CFUs/worm in experiment [1] (32 µM). Besides, the “Log CFUs reduction” value in experiment [1] (16 µM) was 0.27 Log CFUs; in experiment [1] (32 µM), 1.89 Log CFUs.

In the case of “RXRRXRRXRRXRXB [(RXR)4XB, cell penetrating peptide (RXR)4XB, reference compound]”, in experiment [2] (setting [6]), the MIC50 is greater than 128 µM. The MIC in experiment [2] (setting [7]) is greater than 128 µM; in experiment [2] (setting [8]) it was greater than 128 µM; in experiment [2] (setting [9]), greater than 128 µM; in experiment [2] (setting [10]), greater than 128 µM; in experiment [2] (setting [11]), greater than 128 µM; in experiment [2] (strain F4244, broth microdilution in low binding tubes, triplicates, 16 hour incubation, no turbidity, listed as RXR) it was “no growth inhibition”. The compound also gave an MIC in experiment [2] (setting [12]) greater than 128 µM.
